SMILES strings stand for the structures. Some results are limits rather than exact numbers.

The first experiment addresses T1, FLT3 (Homo sapiens, UniProt P36888).
T1 sequence (P36888 27-993): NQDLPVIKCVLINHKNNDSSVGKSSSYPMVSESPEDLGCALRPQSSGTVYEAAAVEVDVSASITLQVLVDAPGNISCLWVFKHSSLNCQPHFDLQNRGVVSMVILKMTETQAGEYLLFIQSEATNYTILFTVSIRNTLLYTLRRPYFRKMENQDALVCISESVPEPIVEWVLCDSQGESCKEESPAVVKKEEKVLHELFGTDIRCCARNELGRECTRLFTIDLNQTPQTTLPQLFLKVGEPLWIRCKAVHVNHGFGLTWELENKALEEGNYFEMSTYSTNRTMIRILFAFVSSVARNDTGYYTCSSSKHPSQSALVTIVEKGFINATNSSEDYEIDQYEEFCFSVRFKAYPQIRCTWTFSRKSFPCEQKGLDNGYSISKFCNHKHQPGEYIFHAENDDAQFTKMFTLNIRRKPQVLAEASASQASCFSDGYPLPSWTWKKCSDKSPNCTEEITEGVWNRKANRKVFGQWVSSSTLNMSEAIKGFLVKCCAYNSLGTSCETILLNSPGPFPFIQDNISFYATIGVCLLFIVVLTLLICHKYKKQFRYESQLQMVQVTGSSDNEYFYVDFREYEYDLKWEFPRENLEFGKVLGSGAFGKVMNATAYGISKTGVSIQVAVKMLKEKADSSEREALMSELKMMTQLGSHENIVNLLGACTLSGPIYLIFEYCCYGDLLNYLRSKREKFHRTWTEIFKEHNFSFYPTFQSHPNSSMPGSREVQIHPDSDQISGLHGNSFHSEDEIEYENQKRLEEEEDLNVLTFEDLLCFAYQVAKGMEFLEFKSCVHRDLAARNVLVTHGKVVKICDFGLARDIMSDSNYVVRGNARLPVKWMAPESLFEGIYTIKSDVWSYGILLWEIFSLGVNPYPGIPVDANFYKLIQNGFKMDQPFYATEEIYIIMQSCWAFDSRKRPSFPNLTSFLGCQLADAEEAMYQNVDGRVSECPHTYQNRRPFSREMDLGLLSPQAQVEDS
The experiment in a line: NanoBRET target engagement assay in HEK-293 cells, FLT3. Conditions: Table 14; live HEK-293 cells, 1 h. The format is cell-based. The source says: The NanoBRET assay measures kinase engagement in real time in the context of the intact cell. Unlike the previously described biochemical kinase assay methodology, the NanoBRET assay measures the binding and activity characteristics under equilibrium conditions using full-length kinases in the presence of cellular concentrations of ATP in live, uncompromised cells. As such, the assay provides a more relevant assessment of kinase potency and selectivity that would be expected to be observed in the native cellular environment, where potency is often considerably lower than that observed in the isolated biochemical assays (Vasta, J. D. et al., (2018) Cell Chem. Biol. 25, 206-214). The assay uses a Kinase-NanoLuc® fusion vector expressing a kinase protein to which a luciferase tag has been added, a cell-permeant fluorescent NanoBRET™ tracer, a NanoLuc® substrate, and an extracellular NanoLuc® inhibitor. Upon expression of the luciferase-tagged kinase, cells will produce a strong BRET signal only in the presence of the NanoBRET™ tracer. The extracellular NanoLuc® inhibitor ensures that the BRET signal observed emanates only from live cells. Because the BRET signal has tight distance constraints, addition of the test compound will decrease the BRET signal if the compound competes with the NanoBRET™ tracer for binding to the kinase domain. Under the appropriate tracer conditions established by the manufacturer, quantitative intracellular affinity and relative potency can then be determined using Mass Action model equations.
HEK-293 cells were purchased from ATCC. FuGENEHD Transfection Reagent, Kinase-NanoLucfusion plasmids, Transfection Carrier DNA, NanoBRETTracers and dilution buffer, NanoBRETNano-Glo Substrate, Extracellular NanoLucInhibitor were obtained from Promega.
Assays were conducted following Promega assay protocol with some modifications. HEK-293 Cells were transiently transfected with Kinase-NanoLucFusion Vector DNA by FuGENEHD Transfection Reagent. Testing compounds were delivered into 384 well assay plate by Echo 550 (LabcyteInc, Sunnyvale, CA). Transfected cells were harvested and mixed with NanoBRETTracer Reagent and dispensed into 384 well plates and incubated at 37 °C in 5% CO2 cell culture incubator for 1 hour. The NanoBRETNano-Glo Substrate plus Extracellular NanoLucInhibitor Solution were added into the wells of the assay plate and incubated for 2-3 minutes at room temperature. The donor emission wavelength (460 nm) and acceptor emission wavelength (600 nm) were measured in the En Visionplate reader. The BRET Ratios were calculated.
BRET Ratio=[(Acceptor sample÷Donor sample)−(Acceptor no-tracer control÷Donor no-tracer control)].
The IC50 values of compounds were calculated with Prism GraphPad program.
• 1). Cultivate HEK-293 cells (70-80% confluence) appropriately prior to assay. Trypsinize and collect HEK-293 cells. • 2). Prepare lipid:DNA complexes as follows: • a. Prepare a 10 μg/ml solution of DNA in Opti-MEM without serum that consists of the following ratios of carrier DNA and DNA encoding NanoLuc® fusion. 9.0 μg/mL of Transfection Carrier DNA, 1.0 μg/mL of NanoLuc fusion vector DNA and 1 mL of Opti-MEM without phenol red. Mix thoroughly. • b. Add 30 μl of FuGENE HD Transfection Reagent into each milliliter of DNA mixture to form lipid:DNA complex. • c. Mix by inversion 10 times. • d. Incubate at ambient temperature for 20 minutes to allow complexes to form. • 3). In a sterile, conical tube, mix 1 part of lipid:DNA complex with 20 parts of HEK-293 cells in suspension. Mix gently by inversion 5 times. • 4). Dispense cells+lipid:DNA complex into a sterile tissue culture dish and incubate for 22-24 hours.
Each test compound is delivered from the compound source plate to the wells of 384-well white NBS plate by Echo 550.
3. Preparation of Cells with NanoBRET™ Tracer Reagent • 1). Remove medium from dish with transfected HEK-293 cells via aspiration, trypsinize and allow cells to dissociate from the dish. • 2). […]
(In BRET a luciferase serves as donor, and the signal depends on an acceptor being close.)
In the case of `COc1cn2ncc(-c3nc(N[C@H]4CNCC[C@@H]4F)ccc3F)c2nc1C1CC1` [Compound 3, 6-(5-cyclopropyl-6-methoxypyrazolo[1,5-a]pyrimidin-3-yl)-5-fluoro-N-((3S,4S)-4-fluoropiperidin-3-yl)pyridin-2-amine], the IC50 (in general, the concentration that inhibits the measured activity by half) is < 0.5 nM.

In turn, `COc1cn2ncc(-c3cccc(N[C@H]4CNCC[C@@H]4F)n3)c2nc1C1CC1` [Compound 21, 6-(5-cyclopropyl-6-methoxypyrazolo[1,5-a]pyrimidin-3-yl)-N-((3S,4S)-4-fluoropiperidin-3-yl)pyridin-2-amine] showed an IC50 of 0.6 nM.

For `COc1cn2ncc(-c3nc(N[C@H]4CNC[C@@H]4F)c(F)cc3F)c2nc1C(C)(C)O` [Compound 12, 2-(3-(3,5-difluoro-6-(((3S,4S)-4-fluoropyrrolidin-3-yl)amino)pyridin-2-yl)-6-methoxypyrazolo[1,5-a]pyrimidin-5-yl)propan-2-ol], the midpoint of inhibition, the IC50, lay at 321 nM.

`COc1cn2ncc(-c3ccc(F)c(N[C@@H]4CCCNC4)n3)c2nc1C1CC1` [Compound 5, (R)-6-(5-cyclopropyl-6-methoxypyrazolo[1,5-a]pyrimidin-3-yl)-3-fluoro-N-(piperidin-3-yl)pyridin-2-amine]: the concentration for half-maximal inhibition (IC50) was 9 nM.

`COc1cn2ncc(-c3nc(N[C@H]4CNCC[C@@H]4F)c(F)cc3F)c2nc1C1CC1` [Compound 22, 6-(5-cyclopropyl-6-methoxypyrazolo[1,5-a]pyrimidin-3-yl)-3,5-difluoro-N-((3S,4S)-4-fluoropiperidin-3-yl)pyridin-2-amine]: the IC50 was < 0.5 nM.

`COc1cn2ncc(-c3nc(N[C@H]4CNCC[C@@H]4F)c(F)cc3F)c2nc1C(C)(C)O` [Compound 13, 2-(3-(3,5-difluoro-6-(((3S,4S)-4-fluoropiperidin-3-yl)amino)pyridin-2-yl)-6-methoxypyrazolo[1,5-a]pyrimidin-5-yl)propan-2-ol] showed an IC50 of 4 nM.

Regarding `COc1cn2ncc(-c3ccc(F)c(N[C@H]4CNCC[C@@H]4F)n3)c2nc1C1CC1` [Compound 6, 6-(5-cyclopropyl-6-methoxypyrazolo[1,5-a]pyrimidin-3-yl)-3-fluoro-N-((3S,4S)-4-fluoropiperidin-3-yl)pyridin-2-amine], the IC50 is < 0.5 nM.

In turn, `COc1cn2ncc(-c3nc(N[C@@H]4CCCNC4)c(F)cc3F)c2nc1C(C)(C)O` [Compound 11, (R)-2-(3-(3,5-difluoro-6-(piperidin-3-ylamino)pyridin-2-yl)-6-methoxypyrazolo[1,5-a]pyrimidin-5-yl)propan-2-ol] gave a concentration for half-maximal inhibition (IC50) of 5 nM.

The experiment is the same for the next values; noted with them: Table 20; live HEK-293 cells, 1 h.
`COc1cn2ncc(-c3nc(N[C@H]4CNC[C@@H]4F)ncc3F)c2nc1C(C)(C)O` [Compound 5a, 2-(3-(5-fluoro-2-(((3S,4S)-4-fluoropyrrolidin-3-yl)amino)pyrimidin-4-yl)-6-methoxypyrazolo[1,5-a]pyrimidin-5-yl)propan-2-ol] showed an IC50 of 113 nM.

As for `COc1cn2ncc(-c3cncc(N[C@@H]4CCCNC4)n3)c2nc1C1CC1` [Compound 11a, (R)-6-(5-cyclopropyl-6-methoxypyrazolo[1,5-a]pyrimidin-3-yl)-N-(piperidin-3-yl)pyrazin-2-amine], the concentration for half-maximal inhibition (IC50) is 2 nM.

Molecule `COc1cn2ncc(-c3nc(N[C@@H]4CCCNC4)ncc3F)c2nc1C(C)(C)O` [Compound 4a, (R)-2-(3-(5-fluoro-2-(piperidin-3-ylamino)pyrimidin-4-yl)-6-methoxypyrazolo[1,5-a]pyrimidin-5-yl)propan-2-ol] gave an IC50 of 52 nM.

Turning to `COc1cn2ncc(-c3nc(N[C@@H]4CCCNC4)ncc3F)c2nc1C1CC1` [Compound 14a, (R)-4-(5-cyclopropyl-6-methoxypyrazolo[1,5-a]pyrimidin-3-yl)-5-fluoro-N-(piperidin-3-yl)pyrimidin-2-amine], the IC50 is < 0.5 nM.

As to `COc1cn2ncc(-c3ccnc(N[C@H]4CNC[C@@H]4F)n3)c2nc1C1CC1` [Compound 8a, 4-(5-cyclopropyl-6-methoxypyrazolo[1,5-a]pyrimidin-3-yl)-N-((3S,4S)-4-fluoropyrrolidin-3-yl)pyrimidin-2-amine], half-maximal inhibition (IC50) was put at 11 nM.

In the case of `COc1cn2ncc(-c3nc(N[C@H]4CNCC[C@@H]4F)ncc3F)c2nc1C(C)(C)O` [Compound 6a, 2-(3-(5-fluoro-2-(((3S,4S)-4-fluoropiperidin-3-yl)amino)pyrimidin-4-yl)-6-methoxypyrazolo[1,5-a]pyrimidin-5-yl)propan-2-ol], the IC50 came to 12 nM.

In turn, `COc1cn2ncc(-c3nc(N[C@H]4CNCC[C@@H]4F)ncc3F)c2nc1C1CC1` [Compound 15a, 4-(5-cyclopropyl-6-methoxypyrazolo[1,5-a]pyrimidin-3-yl)-5-fluoro-N-((3S,4S)-4-fluoropiperidin-3-yl)pyrimidin-2-amine] yielded a half-inhibitory concentration (IC50) of 2 nM.

In turn, `COc1cn2ncc(-c3cncc(N[C@H]4CNCC[C@@H]4F)n3)c2nc1C1CC1` [Compound 12a, 6-(5-cyclopropyl-6-methoxypyrazolo[1,5-a]pyrimidin-3-yl)-N-((3S,4S)-4-fluoropiperidin-3-yl)pyrazin-2-amine] yielded an IC50 of 1 nM.

As to `COc1cn2ncc(-c3ccnc(N[C@H]4CNCC[C@@H]4F)n3)c2nc1C1CC1` [Compound 7a, 4-(5-cyclopropyl-6-methoxypyrazolo[1,5-a]pyrimidin-3-yl)-N-((3S,4S)-4-fluoropiperidin-3-yl)pyrimidin-2-amine], the IC50 amounted to 9 nM.

For the molecule `COc1cn2ncc(-c3nc(N[C@H]4CNC[C@@H]4F)ncc3F)c2nc1C1CC1` [Compound 13a, 4-(5-cyclopropyl-6-methoxypyrazolo[1,5-a]pyrimidin-3-yl)-5-fluoro-N-((3S,4S)-4-fluoropyrrolidin-3-yl)pyrimidin-2-amine], half-maximal inhibition (IC50) required 0.5 nM.

In turn, `COc1cn2ncc(-c3ccnc(N[C@H]4CNCC[C@@H]4F)n3)c2nc1C(C)(C)O` [Compound 3a, 2-(3-(2-(((3S,4S)-4-fluoropiperidin-3-yl)amino)pyrimidin-4-yl)-6-methoxypyrazolo[1,5-a]pyrimidin-5-yl)propan-2-ol] gave an IC50 of 1510 nM.
